According to PMC12524408 (International Journal of Molecular Sciences, 2025):

How the values were obtained:
Assay type in all cases: in vivo, mouse
DSS-induced colitis [1] = test: Effect of 25 nmol/kg PEG-AM in DSS-induced colitis (Study No. P180567); details: 25 nmol/kg single i.v. one day before DSS, vs control, n = 20
Text: The detailed rationale for this choice is provided in the Discussion. Two groups (control and treatment with 25 nmol/kg PEG-AM) were compared, each consisting of 20 animals.  Figure 5 Effect of 25 nmol/kg PEG-AM in DSS-induced colitis (Study No. P180567). (a) Overview of the experimental design. Groups: vehicle (n = 20), PEG-AM 25 nmol/kg (n = 20). (b) Total inflammation scores on day 8. ** p < 0.01, Mann–Whitney U test. (c) Bloody stool scores on day 8, *** p < 0.001, Mann–Whitney U test. (d) Colon length. (e) Colon weight-to-length ratio, ** p < 0.01, unpaired t-test. (f) PEG-AM plasma concentrations on day 8. (g–j) Fold changes in gene expression of RAMP1 (g), RAMP2 (h), RAMP3 (i), and CLR (j). * p < 0.05, unpaired t-test. To evaluate the pharmacological effects of PEG-AM, three animal studies were conducted by the LSI Medience Corporation following the Animal Welfare Act and institutional approval. Seven-week-old male C57BL/6J JCL mice (CLEA Japan, Inc., Tokyo, Japan) were used in all studies and were housed under pathogen-free conditions. Colitis was induced with 3% (w/v) DSS (MW 5000) in drinking water for seven days. PEG-AM (1.0, 5.0, and 25 nmol/kg) or saline (control) was administered intravenously one day before DSS treatment. Each group included 10 mice. Stool consistency, bleeding, and body weight were evaluated on days −1, 0, 3, 5, and 7. A total inflammation score was calculated. Mice were anesthetized with 3% isoflurane (Zoetis Japan, Tokyo, Japan), and the colon was excised on day 7. Following the protocol described in Section 4.6.1, this study was conducted to confirm the efficacy of 25 nmol/kg intravenous PEG-AM. Each treatment group consisted of 20 mice.

RAMP1, RAMP2, RAMP3, CLR [2] = test: Gene expression of receptor components in distal colon, Study No. P180567; details: 25 nmol/kg i.v., qPCR, 2^-ΔΔCt, GAPDH normalization, vs control
Text: Figure 5 Effect of 25 nmol/kg PEG-AM in DSS-induced colitis (Study No. P180567). (a) Overview of the experimental design. Groups: vehicle (n = 20), PEG-AM 25 nmol/kg (n = 20). (b) Total inflammation scores on day 8. ** p < 0.01, Mann–Whitney U test. (c) Bloody stool scores on day 8, *** p < 0.001, Mann–Whitney U test. (d) Colon length. (e) Colon weight-to-length ratio, ** p < 0.01, unpaired t-test. (f) PEG-AM plasma concentrations on day 8. (g–j) Fold changes in gene expression of RAMP1 (g), RAMP2 (h), RAMP3 (i), and CLR (j). * p < 0.05, unpaired t-test.
(§1) After measuring colon length and weight, distal colon tissue was collected, immersed in RNAlater (Thermo Fisher Scientific K.K.), and stored at −80 °C until RNA extraction. Total RNA was extracted using the RNeasy Micro Kit (Qiagen, Singapore) and quantified using a DeNovix DS-11 Microvolume Spectrophotometer. cDNA was synthesized from 2 μg of total RNA using a high-capacity cDNA Reverse Transcription Kit (Thermo Fisher Scientific K.K.). Quantitative PCR was performed using the StepOnePlus Real-Time PCR System (Applied Biosystems, Waltham, MA, USA) and TaqMan Gene Expression Assays for mouse RAMP1, RAMP2, RAMP3, CLR (CALCRL), and GAPDH (internal control). […]
All reactions were performed in duplicate. Relative expression levels were calculated using the 2^−ΔΔCt method with GAPDH normalization.

DSS-induced colitis [3] = test: Therapeutic effect of PEG-AM after onset of DSS colitis (Study No. P200487); details: vs control, n = 6
Procedure: DSS was administered for five days to induce colitis, followed by the administration of PEG-AM or saline on day 5. DSS was replaced with water on day 6 to evaluate recovery. […] (a) Overview of the experimental design. Groups: vehicle (n = 6), PEG-AM 25 nmol/kg (n = 6), 250 nmol/kg (n = 6). (b) Time course of total inflammation scores after PEG-AM administration. (c) Colon length, * p < 0.05, one-way ANOVA followed by Dunnett’s multiple-comparisons test. ns, not significant. (d) Colon weight-to-length ratio, * p < 0.05, one-way ANOVA followed by Dunnett’s multiple-comparisons test. ns, not significant. (e) PEG-AM plasma concentrations on day 12. (f–i) Fold changes in gene expression of RAMP1 (f), RAMP2 (g), RAMP3 (h), and CLR (i). To evaluate the pharmacological effects of PEG-AM, three animal studies were conducted by the LSI Medience Corporation following the Animal Welfare Act and institutional approval. Seven-week-old male C57BL/6J JCL mice (CLEA Japan, Inc., Tokyo, Japan) were used in all studies and were housed under pathogen-free conditions. Colitis was induced with 2% (w/v) DSS (MW 36,000–50,000) for five days. On day 5, the mice were assigned to three groups and intravenously administered one of PEG-AM (25 or 250 nmol/kg) or saline. On day 6, DSS was replaced with water. Clinical symptoms were evaluated on days 5, 8, 10, and 12. The inflammation scores were calculated. Colons were collected on day 12 under isoflurane anesthesia.

RAMP1, RAMP2, RAMP3, CLR [4] = test: Gene expression of receptor components in distal colon, Study No. P200487; details: 25 and 250 nmol/kg i.v., day 12, qPCR
Text: Figure 6 Therapeutic effects of PEG-AM administered after disease onset in DSS-induced colitis (Study No. P200487). (a) Overview of the experimental design. Groups: vehicle (n = 6), PEG-AM 25 nmol/kg (n = 6), 250 nmol/kg (n = 6). (b) Time course of total inflammation scores after PEG-AM administration. (c) Colon length, * p < 0.05, one-way ANOVA followed by Dunnett’s multiple-comparisons test. ns, not significant. (d) Colon weight-to-length ratio, * p < 0.05, one-way ANOVA followed by Dunnett’s multiple-comparisons test. ns, not significant. (e) PEG-AM plasma concentrations on day 12. (f–i) Fold changes in gene expression of RAMP1 (f), RAMP2 (g), RAMP3 (h), and CLR (i).
as §1

Gene expression of receptor components (RAMP1, RAMP2, RAMP3, CLR) (RAMP1, RAMP2, RAMP3, CLR [2]): no downregulation
Receptor component expression (RAMP1, RAMP2, RAMP3, CLR) (RAMP1, RAMP2, RAMP3, CLR [4]): No downregulation
Substance: 40 kDa PEGylated adrenomedullin [PEG-AM]
Bloody stool score on day 8 (DSS-induced colitis [1]; p = 0.0008, Mann-Whitney U test): significantly lower
Colon weight per unit length (DSS-induced colitis [1]; p = 0.0024, unpaired t-test): significantly lower
Total inflammation score on day 8 (DSS-induced colitis [1]; p = 0.0062, Mann-Whitney U test): significantly lower
Colon length (DSS-induced colitis [1]; p = 0.1429, unpaired t-test): not significantly different
Colon weight per unit length (DSS-induced colitis [3]; 250 nmol/kg i.v. on day 5 after DSS onset, day 12, p = 0.039, Dunnett's test): significantly lower
Total inflammation scores over time (DSS-induced colitis [3]; 25 or 250 nmol/kg i.v. on day 5 after 2% DSS (MW 36,000-50,000) for five days, days 5-12): did not significantly alter
Colon length (DSS-induced colitis [3]; i.v. on day 5 after DSS onset, day 12, p = 0.014, one-way ANOVA with Dunnett's test, dose group not given): significantly longer
RAMP2 expression (RAMP1, RAMP2, RAMP3, CLR [4]): increased in a dose-dependent manner; however, the increase was not statistically significant
